Each block holds one molecule with its values, some of them ahead of it.
Tests used:
TtEst2 [1] = biological target: T1, TtEst2 (Thermogutta terrifontis, UniProt A0A0X1KHD1); assay: X-ray crystal structure, soak; assay type: binding; conditions: carboxyl pocket of active site
T1 construct: mature form, predicted signal peptide removed; pLATE52 N-terminal His6 tag with WELQ protease site (cleavage not mentioned); E. coli BL21 (DE3); monomer; residues 1-283 modelled

TtEst2 [2] = biological target: T1, TtEst2; assay: pNP release, A410; assay type: biochemical; conditions: 1 mM substrate, 20 mM HEPES, 100 mM NaCl, pH 7.5, 25 C

T1 sequence (A0A0X1KHD1 entry or part of it): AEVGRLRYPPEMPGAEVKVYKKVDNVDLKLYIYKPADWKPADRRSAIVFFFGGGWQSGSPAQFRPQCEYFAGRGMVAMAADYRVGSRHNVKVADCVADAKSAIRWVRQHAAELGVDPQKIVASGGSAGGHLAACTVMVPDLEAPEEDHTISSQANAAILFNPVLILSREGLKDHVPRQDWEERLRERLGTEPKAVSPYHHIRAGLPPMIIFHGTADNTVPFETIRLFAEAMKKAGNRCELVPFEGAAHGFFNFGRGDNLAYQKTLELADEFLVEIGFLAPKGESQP

X-ray crystal structure, soak (TtEst2 [1]; pH 4.5, 25 mM soak, oxyanion hole, 1.79 A): 5AOB (butyrate bound)
Compound: CCCC(=O)O [butyrate]

Compound: CC(=O)Oc1ccc([N+](=O)[O-])cc1 [pNP-acetate]
pNP release, A410 (TtEst2 [2]): The enzyme was most active toward pNP-acetate

X-ray crystal structure, soak (TtEst2 [1]; pH 4.5, 25 mM soak, oxyanion hole, 1.71 A): 5AOA (propionate bound)
Compound: CCC(=O)O [propionate]

X-ray crystal structure, soak (TtEst2 [1]; pH 4.5, soaked as 25 mM pNP-valerate, only valerate part seen, 1.79 A): 5AOC (valerate bound)
Compound: CCCCC(=O)O [valerate]

From publication PMC4655241, “The Structure of a Novel Thermophilic Esterase from the Planctomycetes Species, Thermogutta terrifontis Reveals an Open Active Site Due to a Minimal ‘Cap’ Domain” (Frontiers in Microbiology, 2015)
